Legend:
Carbonic anhydrase 1 = Carbonic anhydrase 1 (Homo sapiens, UniProt P00915)
Carbonic anhydrase 2 = Carbonic anhydrase 2 (Homo sapiens, UniProt P00918)
Carbonic anhydrase 9 = Carbonic anhydrase 9 (Homo sapiens, UniProt Q16790)

Carbonic anhydrase 1, sequence (P00915 whole entry): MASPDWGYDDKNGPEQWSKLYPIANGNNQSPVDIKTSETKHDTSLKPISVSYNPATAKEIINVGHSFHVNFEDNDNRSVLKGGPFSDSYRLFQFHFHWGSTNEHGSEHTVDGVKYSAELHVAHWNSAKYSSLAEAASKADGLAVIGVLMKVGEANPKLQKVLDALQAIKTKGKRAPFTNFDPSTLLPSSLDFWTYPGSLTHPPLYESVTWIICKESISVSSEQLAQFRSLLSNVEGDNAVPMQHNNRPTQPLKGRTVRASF

| Ki (Carbonic anhydrase 1) [nM] | Ki (Carbonic anhydrase 2) [nM] | Ki (Carbonic anhydrase 9) [nM] | SMILES |
| --- | --- | --- | --- |
| 110 | 84 | 0.34 | CCOc1nc(NCc2ccc(S(N)(=O)=O)cc2)nc(OCC)n1 |
| 88 | 27 | 1.1 | CNc1nc(NC)nc(NCCc2ccc(S(N)(=O)=O)cc2)n1 |
| – | 21 | 162 | COc1nc(NCCc2ccc(S(N)(=O)=O)cc2)nc(OC)n1 |
| 116 | 112 | 155 | COc1nc(NCc2ccc(S(N)(=O)=O)cc2)nc(OC)n1 |
| 90 | 15 | 1.3 | CNc1nc(NC)nc(NCc2ccc(S(N)(=O)=O)cc2)n1 |
| 83 | – | – | CNc1nc(NC)nc(Nc2ccc(S(N)(=O)=O)cc2)n1 |
| 75 | 21 | 138 | NS(=O)(=O)c1ccc(CCNc2nc(Cl)nc(Cl)n2)cc1 |
| 96 | 98 | 549 | NS(=O)(=O)c1ccc(CCNc2nc(=O)[nH]c(=O)[nH]2)cc1 |
| 78 | 20 | 0.12 | CCOc1nc(Nc2ccc(S(N)(=O)=O)cc2)nc(OCC)n1 |
| 85 | 36 | 150 | COc1nc(Nc2ccc(S(N)(=O)=O)cc2)nc(OC)n1 |
| – | – | 0.15 | NS(=O)(=O)c1ccc(Nc2nc(Cl)nc(Cl)n2)cc1 |
| 82 | 23 | – | CCOc1nc(NCCc2ccc(S(N)(=O)=O)cc2)nc(OCC)n1 |

| SMILES | Ki (Carbonic anhydrase 1) [nM] | Ki (Carbonic anhydrase 2) [nM] | Ki (Carbonic anhydrase 9) [nM] |
| --- | --- | --- | --- |
| NS(=O)(=O)c1ccc(Nc2nc(=O)[nH]c(=O)[nH]2)cc1 | 103 | 278 | 142 |
| NS(=O)(=O)c1ccc(CNc2nc(=O)[nH]c(=O)[nH]2)cc1 | 94 | 130 | 360 |

Reference: ChEMBL document CHEMBL1138005, “Carbonic anhydrase inhibitors: synthesis and inhibition of cytosolic/tumor-associated carbonic anhydrase isozymes I, II, and IX with sulfonamides incorporating 1,2,4-triazine moieties” (Bioorg Med Chem Lett, 2004)
